Laboratory results as given in patent US12612388B2, “Receptor-interacting protein 1 inhibitors including piperazine heterocyclic amide ureas” (SIRONAX LTD., priority 2020, dated 2026).
pEC50: −log10 of the molar value. Where two headings read alike, the source gives them in different places.

System: HT-29 cells
Assay: Cellular RIP1 inhibitory activity: necroptosis of HT-29 cells induced by TNF-α/SMAC mimetic/zVAD-FMK, CellTiter-Glo viability
Format: cell-based
Settings: Homo sapiens, read-out: EC50 (Cell activity; Necrosis or Necroptosis Inhibitory Activity)
Method: In Table 2, activity is provided as follows: +++=0.1 nM≤EC50<100 nM; ++=100 nM≤EC50K<1000 nM; +=1000 nM≤EC50K<10000 nM.
Compounds 1-67 (denoted as Compound Nos. 1 through 67 in Table 1) of the disclosure were tested for binding and cellular RIP1 inhibitory activity following the experimental procedures described below.
Cell line: HT-29 (ATCC® HTB-38™)
Culture medium: McCOY's 5A, Gibco, Cat No. 16600-082
DMSO: Sigma, Cat No. 67-68-5, 1 L
Assay plate: Corning #3903
Compound dilution plate: Corning #3357
Inducers: TNFα, GenScript, Cat No. Z01001-50,
SmacM, Cat. No., HY-15989, MedChemExpress (MCE)
Z_VAD FMK, TargetMol, T6013
Cell Titer-Glo® Luminescent Cell Viability Assay Kit: Promega, Cat No. G7573
1. HT-29 cells were checked every day to make sure that they were healthy and growing as expected. They were subjected to sub-culturing when they were approximately 80% confluent.
2. The culture medium, McCOY's 5A medium (Gibco, Cat No. 16600-082) with 10% fetal bovine serum or FBS (Gibco, Cat No. 10099-141C), was pre-warmed in a 37° C. water bath for at least 30 min.
3. When the cells had reached a desired level of confluency of 80% in a T75 flask, the medium was aspirated, and the cells were washed with warm phosphate buffered saline or PBS two times.
4. 2-3 ml fresh warm trypsin (Gibco, Cat No. 25200-056) solution was added to the washed cells. The flask with the cells was transferred to a 37° C. incubator.
5. After 5 minutes, the side of the flask was tapped, and the flask was examined under a microscope for detachment of the cells to the flask. If necessary, the cells were kept in the incubator for an additional 5-10 minutes, with occasional tapping, until lifting was complete.
6. The trypsin reaction was neutralized by transferring 6-9 ml cell culture medium to sterile 15 ml conical tubes, and by centrifuging the cell culture at 300×g for 7 minutes to pellet the cells (supernatant decanted).
7. The cells were resuspended in fresh cell culture medium and the cell counting was performed using a hemocytometer.
8. 100 μl of the resuspended cell culture medium containing ˜5,000 cells were transferred into each well of the sterile 96-well cell culture plate (Corning 3903) and cultured overnight at 37° C. with 5% CO2.
Compound Titration and Treatment
1. All test compounds were dissolved in DMSO (Dimethyl sulfoxide) to create a 20 mM stock.
2. 3 μl of each compound 20 mM stock was mixed with 27 μl DMSO, and the compound solution was further diluted at a titration ratio of 1:3 (20 μl compound solution+40 μl DMSO) till the 10 points end.
3. All culture medium was removed from assay plates filled with HT-29 cell cultures. The cells were then washed with 1 PBS, and resuspended in fresh, FBS-free McCOY's 5A medium containing a cocktail of TNF-α (10 ng/ml), a SMAC mimetic compound (6 μM) and Z-VAD-fluoromethylketone or zVAD-FMK (10 μM) to stimulate the HT-29 cells to increase RIP1 kinase levels and necroptosis.
4. 0.5 μL of the diluted compound solution was added to the corresponding 96-well assay plates.
5. The assay plates were incubated for 20 hours at 37° C. with 5% CO2.
1. The CellTiter-Glo® Luminescent Cell Viability Assay was employed to detect the ATP levels of viable HT-29 cells.
2. The CellTiter-Glo® buffer and the lyophilized substrate were equilibrated to room temperature prior to use.
3. The CellTiter-Glo® substrate was resuspended with CellTiter-Glo® buffer, then mixed by gently vortexing to obtain a homogeneous solution.
4. 20 μl the enzyme/substrate mixture was transferred by multi-channel pipetting into 96-well assay plates.
5. The assay plates were placed on an orbital shaker and the contents were shaken for 3 minutes to induce cell lysis.
6. The assay plates were incubated at room temperature for 10 minutes to stabilize the luminescent signal.
7. The luminescence signals were read and recorded with EnVision.
8. The geometric mean EC50 values were calculated from 10 points response dose with duplicates. […]

[1] = HT-29 cells, TNF-α 10 ng/ml, SMAC mimetic 6 μM, zVAD-FMK 10 μM, 20 hours, geometric mean, 10 points, duplicates

Compound | pEC50 [1] | pEC50 (HT-29, 20 h)
COC1CN(C(=O)c2nc(N3CCN(C(=O)N4N=CC[C@H]4c4cncc(Cl)c4)CC3)ncc2Cl)C1 (stereo in doubt) [Compound 65, (5-chloro-2-(4-(5-(5-chloropyridin-3-yl)-4,5-dihydro-1H-pyrazole-1-carbonyl)piperazin-1-yl)pyrimidin-4-yl)(3-methoxyazetidin-1-yl)methanone] | 7.00 to 10.00 | –
O=C(O)c1nc(N2CCN(C(=O)N3N=CC[C@H]3c3cc(F)cc(F)c3)CC2)ncc1F [Compound 1, (S)-2-(4-(5-(3,5-difluorophenyl)-4,5-dihydro-1H-pyrazole-1-carbonyl)piperazin-1-yl)-5-fluoropyrimidine-4-carboxylic acid] | 5.00 to 6.00 | –
O=C(NO)c1nc(N2CCN(C(=O)N3N=CC[C@H]3c3cc(F)cc(F)c3)CC2)ncc1F [Compound 2, (S)-2-(4-(5-(3,5-difluorophenyl)-4,5-dihydro-1H-pyrazole-1-carbonyl)piperazin-1-yl)-5-fluoro-N-hydroxypyrimidine-4-carboxamide] | 7.00 to 10.00 | –
CONC(=O)c1nc(N2CCN(C(=O)N3N=CC[C@H]3c3cc(F)cc(F)c3)CC2)ncc1F [Compound 3, (S)-2-(4-(5-(3,5-difluorophenyl)-4,5-dihydro-1H-pyrazole-1-carbonyl)piperazin-1-yl)-5-fluoro-N-methoxypyrimidine-4-carboxamide] | 6.00 to 7.00 | –
CNC(=O)c1nc(N2CCN(C(=O)N3N=CC[C@H]3c3cc(F)cc(F)c3)CC2)ncc1F [Compound 4] | 7.00 to 10.00 | –
CN(C)C(=O)c1nc(N2CCN(C(=O)N3N=CC[C@H]3c3cc(F)cc(F)c3)CC2)ncc1F [Compound 5, 2-(4-(5-(3,5-difluorophenyl)-4,5-dihydro-1H-pyrazole-1-carbonyl)piperazin-1-yl)-5-fluoro-N,N-dimethylpyrimidine-4-carboxamide] | 7.00 to 10.00 | –
CCN(C)C(=O)c1nc(N2CCN(C(=O)N3N=CC[C@H]3c3cc(F)cc(F)c3)CC2)ncc1F [Compound 6, (S)-2-(4-(5-(3,5-difluorophenyl)-4,5-dihydro-1H-pyrazole-1-carbonyl)piperazin-1-yl)-N-ethyl-5-fluoro-N-methylpyrimidine-4-carboxamide] | 7.00 to 10.00 | –
O=C(c1nc(N2CCN(C(=O)N3N=CC[C@H]3c3cc(F)cc(F)c3)CC2)ncc1F)N1CCC1 [Compound 7, (S)-azetidin-1-yl(2-(4-(5-(3,5-difluorophenyl)-4,5-dihydro-1H-pyrazole-1-carbonyl)piperazin-1-yl)-5-fluoropyrimidin-4-yl)methanone] | – | 7.00 to 10.00
O=C(c1nc(N2CCN(C(=O)N3N=CC[C@H]3c3cc(F)cc(F)c3)CC2)ncc1F)N1CCCC1 [Compound 8, (S)-(5-(3,5-difluorophenyl)-4,5-dihydro-1H-pyrazol-1-yl)(4-(5-fluoro-4-(pyrrolidine-1-carbonyl)pyrimidin-2-yl)piperazin-1-yl)methanone] | 7.00 to 10.00 | –
CN(C(=O)c1nc(N2CCN(C(=O)N3N=CC[C@H]3c3cc(F)cc(F)c3)CC2)ncc1F)C1CC1 [Compound 9, (S)—N-cyclopropyl-2-(4-(5-(3,5-difluorophenyl)-4,5-dihydro-1H-pyrazole-1-carbonyl)piperazin-1-yl)-5-fluoro-N-methylpyrimidine-4-carboxamide] | 7.00 to 10.00 | –
O=C(c1nc(N2CCN(C(=O)N3N=CC[C@H]3c3cc(F)cc(F)c3)CC2)ncc1F)N1CC(CN2CCCC2)C1 [Compound 10, (5-(3,5-difluorophenyl)-4,5-dihydro-1H-pyrazol-1-yl)(4-(5-fluoro-4-(3-(pyrrolidin-1-ylmethyl)azetidine-1-carbonyl)pyrimidin-2-yl)piperazin-1-yl)methanone] | 7.00 to 10.00 | –
CCN(O)C(=O)c1nc(N2CCN(C(=O)N3N=CC[C@H]3c3cc(F)cc(F)c3)CC2)ncc1F [Compound 11, (S)-2-(4-(5-(3,5-difluorophenyl)-4,5-dihydro-1H-pyrazole-1-carbonyl)piperazin-1-yl)-N-ethyl-5-fluoro-N-hydroxypyrimidine-4-carboxamide] | 7.00 to 10.00 | –
